The structures appear in SMILES notation.

The target of data set [1] is T1, Leucine-rich repeat serine/threonine-protein kinase 2 (Homo sapiens, UniProt Q5S007, G2019S). The experiment in a line: Binding affinity to human GST tagged truncated LRRK2 G2019S mutant incubated for 2 hrs by TR-FRET based Lanthascreen kinase activity assay.
Data set [2] addresses T1, Leucine-rich repeat serine/threonine-protein kinase 2. The data set is described as follows: Inhibition of recombinant human GST tagged truncated LRRK2 G2019S mutant using fluorescein-labeled LRRKtide as substrate in presence of ATP preincubated for 50 mins followed by anti-phospho-LRRKtide antibody addition and measured after 30 mins by TR-FRET based Lanthascreen kinase activity assay. For orientation: In TR-FRET formats the signal depends on donor and acceptor labels being close together.

For data set [3], the target named is T2, Leucine-rich repeat serine/threonine-protein kinase 2 (Homo sapiens, UniProt Q5S007). The experiment in a line: Inhibition of recombinant human LRRK2 WT using fluorescein-labeled LRRKtide as substrate in presence of ATP preincubated for 50 mins followed by anti-phospho-LRRKtide antibody addition and measured after 30 mins by TR-FRET based Lanthascreen kinase activity assay.
T2 sequence (Q5S007 whole entry): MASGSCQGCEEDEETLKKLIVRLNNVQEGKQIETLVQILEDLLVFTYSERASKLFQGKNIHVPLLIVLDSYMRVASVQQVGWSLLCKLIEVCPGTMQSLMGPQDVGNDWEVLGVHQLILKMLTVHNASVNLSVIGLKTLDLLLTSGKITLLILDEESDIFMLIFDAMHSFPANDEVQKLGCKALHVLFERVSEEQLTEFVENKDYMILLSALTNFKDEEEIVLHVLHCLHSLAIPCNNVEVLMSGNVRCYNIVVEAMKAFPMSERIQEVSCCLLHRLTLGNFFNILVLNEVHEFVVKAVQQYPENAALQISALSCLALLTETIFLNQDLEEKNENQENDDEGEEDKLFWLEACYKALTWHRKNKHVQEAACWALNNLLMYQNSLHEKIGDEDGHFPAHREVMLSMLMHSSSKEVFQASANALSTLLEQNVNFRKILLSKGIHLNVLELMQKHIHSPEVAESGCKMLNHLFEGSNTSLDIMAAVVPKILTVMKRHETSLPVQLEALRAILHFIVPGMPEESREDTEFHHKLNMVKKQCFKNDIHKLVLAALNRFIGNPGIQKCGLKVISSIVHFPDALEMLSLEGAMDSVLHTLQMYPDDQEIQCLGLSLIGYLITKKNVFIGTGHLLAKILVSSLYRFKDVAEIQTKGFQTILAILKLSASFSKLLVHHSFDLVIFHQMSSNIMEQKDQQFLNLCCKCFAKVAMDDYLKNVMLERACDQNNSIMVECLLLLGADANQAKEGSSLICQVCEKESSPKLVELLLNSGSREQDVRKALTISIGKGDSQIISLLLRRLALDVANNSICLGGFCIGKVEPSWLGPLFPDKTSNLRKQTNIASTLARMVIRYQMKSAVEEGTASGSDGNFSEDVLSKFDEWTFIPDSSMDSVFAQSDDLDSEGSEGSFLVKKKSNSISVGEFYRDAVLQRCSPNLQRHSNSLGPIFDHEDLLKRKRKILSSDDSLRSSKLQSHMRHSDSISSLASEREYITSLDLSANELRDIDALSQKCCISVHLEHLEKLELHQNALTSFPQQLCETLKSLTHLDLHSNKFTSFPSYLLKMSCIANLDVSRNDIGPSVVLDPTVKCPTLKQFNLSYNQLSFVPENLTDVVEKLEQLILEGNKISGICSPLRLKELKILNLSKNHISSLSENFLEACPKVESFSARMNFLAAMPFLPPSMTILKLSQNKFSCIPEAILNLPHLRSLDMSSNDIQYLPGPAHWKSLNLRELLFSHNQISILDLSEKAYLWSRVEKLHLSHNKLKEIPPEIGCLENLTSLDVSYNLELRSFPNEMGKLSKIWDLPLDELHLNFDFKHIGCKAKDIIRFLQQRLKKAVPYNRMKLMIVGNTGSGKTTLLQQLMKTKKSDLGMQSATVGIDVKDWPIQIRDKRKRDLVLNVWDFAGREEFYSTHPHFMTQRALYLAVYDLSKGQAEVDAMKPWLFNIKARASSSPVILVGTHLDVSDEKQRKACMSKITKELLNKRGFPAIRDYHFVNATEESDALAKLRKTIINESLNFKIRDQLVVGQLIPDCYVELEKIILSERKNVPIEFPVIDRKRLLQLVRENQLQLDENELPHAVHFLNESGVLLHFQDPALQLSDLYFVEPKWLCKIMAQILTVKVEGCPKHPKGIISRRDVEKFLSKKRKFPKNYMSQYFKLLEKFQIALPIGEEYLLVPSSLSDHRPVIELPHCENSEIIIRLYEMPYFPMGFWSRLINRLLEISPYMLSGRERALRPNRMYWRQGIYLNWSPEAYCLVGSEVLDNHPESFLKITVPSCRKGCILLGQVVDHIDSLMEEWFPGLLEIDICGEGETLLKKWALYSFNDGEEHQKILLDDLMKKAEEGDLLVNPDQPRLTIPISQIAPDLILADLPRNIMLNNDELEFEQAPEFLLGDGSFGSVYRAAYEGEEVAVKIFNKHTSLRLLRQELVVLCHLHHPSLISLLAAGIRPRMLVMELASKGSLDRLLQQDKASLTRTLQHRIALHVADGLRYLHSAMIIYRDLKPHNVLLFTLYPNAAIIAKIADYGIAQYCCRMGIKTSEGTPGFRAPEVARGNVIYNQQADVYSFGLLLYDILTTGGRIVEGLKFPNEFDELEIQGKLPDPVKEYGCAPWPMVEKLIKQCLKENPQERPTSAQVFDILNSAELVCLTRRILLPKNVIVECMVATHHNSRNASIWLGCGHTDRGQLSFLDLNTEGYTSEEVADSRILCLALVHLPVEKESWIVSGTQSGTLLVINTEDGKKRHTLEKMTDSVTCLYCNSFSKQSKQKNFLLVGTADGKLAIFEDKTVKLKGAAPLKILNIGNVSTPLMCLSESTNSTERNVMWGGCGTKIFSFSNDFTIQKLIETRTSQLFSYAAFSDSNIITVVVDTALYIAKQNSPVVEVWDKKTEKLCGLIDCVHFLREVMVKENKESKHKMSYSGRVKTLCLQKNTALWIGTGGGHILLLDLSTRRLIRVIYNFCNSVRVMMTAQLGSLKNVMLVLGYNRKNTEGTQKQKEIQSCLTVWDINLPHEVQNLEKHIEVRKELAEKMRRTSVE

Data set [4] concerns the target T2, Leucine-rich repeat serine/threonine-protein kinase 2. The data set is described as follows: Inhibition of LRRK2-pSer935 in LRRK2 WT expressing human HEK293 cells and measured after 48 hrs by ICW assay. The class given is cell-based.
In data set [5] the target is T1, Leucine-rich repeat serine/threonine-protein kinase 2. The data set is described as follows: Inhibition of LRRK2-pSer935 in LRRK2 G2019S mutant expressing human HEK293 cells and measured after 48 hrs by ICW assay. The class given is cell-based.
For data set [6], the target named is T2, Leucine-rich repeat serine/threonine-protein kinase 2. The data set is described as follows: Binding affinity to human LRRK2 WT incubated for 2 hrs by TR-FRET based Lanthascreen kinase activity assay.
The target of data set [7] is Proto-oncogene tyrosine-protein kinase receptor Ret (Homo sapiens) (UniProt P07949). The data set is described as follows: Inhibition of RET (unknown origin) assessed as remaining activity using botin-anti-his and Lanthascreen Eu-streptavidin measured at 1 uM incubated for 2 hrs by TR-FRET based Lanthascreen kinase activity assay relative to control.
Chain of Proto-oncogene tyrosine-protein kinase receptor Ret (Homo sapiens) (P07949 whole entry): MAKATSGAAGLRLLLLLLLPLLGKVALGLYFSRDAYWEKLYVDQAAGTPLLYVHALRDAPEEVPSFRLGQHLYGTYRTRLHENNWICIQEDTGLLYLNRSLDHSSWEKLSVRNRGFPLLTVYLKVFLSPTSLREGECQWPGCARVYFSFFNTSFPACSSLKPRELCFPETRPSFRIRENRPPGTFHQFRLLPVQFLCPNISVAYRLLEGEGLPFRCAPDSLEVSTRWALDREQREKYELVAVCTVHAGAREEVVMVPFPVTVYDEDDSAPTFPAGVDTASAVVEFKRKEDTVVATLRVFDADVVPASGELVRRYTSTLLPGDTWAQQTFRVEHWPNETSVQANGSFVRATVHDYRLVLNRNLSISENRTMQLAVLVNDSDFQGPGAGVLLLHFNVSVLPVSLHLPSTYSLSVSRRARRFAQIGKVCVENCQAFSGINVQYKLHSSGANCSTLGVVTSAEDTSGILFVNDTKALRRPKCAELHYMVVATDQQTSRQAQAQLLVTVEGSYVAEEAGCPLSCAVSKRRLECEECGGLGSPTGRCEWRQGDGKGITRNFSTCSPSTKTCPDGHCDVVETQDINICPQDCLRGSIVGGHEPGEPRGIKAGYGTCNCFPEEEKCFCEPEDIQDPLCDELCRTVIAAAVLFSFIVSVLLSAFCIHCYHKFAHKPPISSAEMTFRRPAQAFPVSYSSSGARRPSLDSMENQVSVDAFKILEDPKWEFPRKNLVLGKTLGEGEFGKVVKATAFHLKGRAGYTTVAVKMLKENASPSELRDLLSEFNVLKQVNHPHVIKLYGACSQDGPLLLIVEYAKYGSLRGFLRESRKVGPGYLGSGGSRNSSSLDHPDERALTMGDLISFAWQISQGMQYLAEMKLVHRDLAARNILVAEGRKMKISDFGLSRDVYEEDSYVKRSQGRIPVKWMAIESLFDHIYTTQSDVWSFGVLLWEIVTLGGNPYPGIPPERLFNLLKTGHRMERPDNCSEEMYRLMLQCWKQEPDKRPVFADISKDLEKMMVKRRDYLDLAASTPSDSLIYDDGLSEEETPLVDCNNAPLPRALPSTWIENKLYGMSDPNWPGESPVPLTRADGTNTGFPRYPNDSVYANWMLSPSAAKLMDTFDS
Data set [8] concerns the target T3, NUAK family SNF1-like kinase 1 (Homo sapiens) (UniProt O60285).
T3 sequence (whole entry): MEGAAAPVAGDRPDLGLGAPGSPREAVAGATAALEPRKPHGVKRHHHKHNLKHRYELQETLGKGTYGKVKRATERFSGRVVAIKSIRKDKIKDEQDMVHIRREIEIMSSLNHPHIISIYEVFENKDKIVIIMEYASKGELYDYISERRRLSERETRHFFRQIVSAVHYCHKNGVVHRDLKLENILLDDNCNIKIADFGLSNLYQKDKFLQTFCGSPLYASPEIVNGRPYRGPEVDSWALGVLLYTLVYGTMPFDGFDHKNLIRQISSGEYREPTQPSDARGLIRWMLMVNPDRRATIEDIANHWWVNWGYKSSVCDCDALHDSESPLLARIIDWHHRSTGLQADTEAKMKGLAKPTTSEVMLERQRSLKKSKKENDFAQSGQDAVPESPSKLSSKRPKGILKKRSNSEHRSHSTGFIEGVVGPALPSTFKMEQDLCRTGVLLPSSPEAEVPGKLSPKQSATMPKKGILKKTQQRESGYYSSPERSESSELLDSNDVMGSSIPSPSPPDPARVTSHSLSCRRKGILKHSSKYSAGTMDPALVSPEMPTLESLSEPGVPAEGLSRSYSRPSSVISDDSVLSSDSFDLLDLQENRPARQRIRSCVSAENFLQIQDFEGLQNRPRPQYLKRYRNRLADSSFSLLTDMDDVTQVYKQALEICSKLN
The data set is described as follows: Inhibition of ARK5 (unknown origin) assessed as remaining activity using botin-anti-his and Lanthascreen Eu-streptavidin at 1 uM incubated for 2 hrs by TR-FRET based Lanthascreen kinase activity assay relative to control.

Data set [9] is described as follows: Aqueous solubility of the compound. The settings on record: buffer. The class given is physicochemical.

T1 sequence (Q5S007 whole entry G2019S, the tested form may be a part): as the sequence (Q5S007 whole entry) above, with G2019S counted along it

What is called Ki is the dissociation constant of the complex between target and ligand, obtained from inhibition or displacement. Higher therefore signals weaker binding. As usually defined, the IC50 is the concentration that gives 50% inhibition. Turning to `Nc1ncnc2nc[nH]c12` [ADENINE], affinity in [1] was put at a Ki of 6720 nM. The IC50 in data set [2] was determined as 15800 nM.
In the case of `Cc1nn(C2CCOC2)cc1Nc1nc(N)c2c(C#N)c(N3CCC[C@H]3C)n(C)c2n1` (single isomer, unassigned), the IC50 in data set [3] turned out to be 44 nM; in [2], 28 nM; in data set [4], 260 nM; in data set [5], 180 nM.
With `Cc1c(Nc2nc(N)c3c(C#N)c(N4CCC[C@H]4C)n(C)c3n2)cnn1CC(C)(C)O`, the IC50 worked out at 43 nM in data set [3], 35 nM in [2], 280 nM in [4] and 120 nM in data set [5].
For the compound `C[C@@H]1CCCN1c1cc2c(N)ncnc2n1C`, the Ki is 439 nM in data set [1] and 164 nM in data set [6]. Also, the values for the IC50 in data set [3] and in data set [2] were 6830 nM and 6390 nM, respectively.
As for `Cn1c(N2CCCC2)c(C#N)c2c(N)ncnc21`, the Ki in data set [1] was found to be 125 nM; in [6] it was 41 nM. Also, the IC50 in data set [3] is 1480 nM; in [2] it was 1910 nM.
Turning to `Cn1c(-c2cccc(F)c2F)c(C#N)c2c(N)ncnc21`, the Ki in data set [1] amounted to 11 nM; in data set [6] it was 14 nM. Further, the values for the IC50 in data set [3] and in [2] were 572 nM and 159 nM, respectively.
Regarding `Cc1nn(CC(C)(C)O)cc1Nc1nc(N)c2c(C#N)c(N3CCC[C@H]3C)n(C)c2n1`, the IC50 in [3] is 49 nM; in data set [2], 42 nM; in [4], 280 nM; in [5], 180 nM.
Compound `Nc1ncnc2[nH]ncc12` registered a Ki in [1] of 11300 nM. The IC50 in data set [2] amounted to 26600 nM.
For `C[C@@H]1CCCN1c1[nH]c2ncnc(N)c2c1C#N`, the Ki in data set [1] was 14 nM; in [6], 4 nM. The IC50 in data set [3] was found to be 166 nM; in data set [2], 201 nM.
As for `C[C@@H]1CCCN1c1c(C#N)c2c(N)nc(Nc3cn[nH]c3)nc2n1C`, the Activity in [7] was found to be 101%; in data set [8], 97%. In addition, the Ki in [1] was found to be 0.4 nM; in [6], 0.2 nM. The IC50 in [3] and in data set [2] was 6 nM in each case.
`Cc1nn(C)cc1Nc1nc(N)c2c(C#N)c(N3CCC[C@H]3C)n(C)c2n1`: the Ki in data set [1] was determined as 2 nM; in data set [6], 1 nM. The IC50 amounted to 38 nM in data set [3], 30 nM in data set [2], 190 nM in data set [4] and 120 nM in data set [5].
With `Cn1c(-n2cccc2)c(C#N)c2c(N)ncnc21`, the solubility result in data set [9] is “Insoluble”. Besides, the Ki amounted to 1980 nM in [1] and 239 nM in [6].
On to `Cn1c(N)c(C#N)c2c(N)ncnc21`, for which the Ki in data set [1] came out at 589 nM; in data set [6], 346 nM. For the same compound, the IC50 in data set [3] was determined as 14400 nM; in [2], 8560 nM.
`C[C@@H]1CCCN1c1c(C#N)c2c(N)nc(Nc3cn(C)nc3C(F)(F)F)nc2n1C`: the IC50 in data set [3] came to 508 nM; in [2], 358 nM; in data set [4] it was 910 nM; in data set [5], 460 nM.
`CN(C)c1c(C#N)c2c(N)ncnc2n1C`: the Ki in [1] was 259 nM; in data set [6] it was 111 nM. In addition, the IC50 in data set [3] is 4620 nM; in data set [2], 3760 nM.
Regarding `Cc1nn(C2CCOC2)cc1Nc1nc(N)c2c(C#N)c(N3CCC[C@H]3C)n(C)c2n1` (mixture of isomers), the IC50 in data set [3] amounted to 19 nM; in [2], 12 nM; in data set [4], 140 nM; in data set [5] it was 65 nM.
As to `C[C@@H]1CCCN1c1c(C#N)c2c(N)nc(Nc3ccn(C)n3)cc2n1C`, the Activity in [7] was 27%; in [8] it was 3%. The results for the Ki in data set [1] and in data set [6] were 13 nM and 6 nM, respectively. Moreover, the results for the IC50 in data set [3] and in data set [2] were 234 nM and 206 nM, respectively.
On to `C[C@@H]1CCCN1c1c(C#N)c2c(N)nc(Nc3cnn(C)c3)cc2n1C`, for which the Ki turned out to be 794 nM in data set [1] and 538 nM in data set [6].
Take `Cc1c(Nc2nc(N)c3c(C#N)c(N4CCC[C@H]4C)n(C)c3n2)cnn1C1COC1`: the half-maximal inhibitory concentration (IC50) was 47 nM in [3], 37 nM in data set [2], 300 nM in data set [4] and 190 nM in [5].
For the compound `Cn1c(NCc2ccccc2)c(C#N)c2c(N)ncnc21`, the Ki in data set [1] was determined as 243 nM; in data set [6], 423 nM. Besides, in data set [2], the IC50 stood at 3530 nM.
As for `Cc1c(Nc2nc(N)c3c(C#N)c(N4CCC[C@H]4C)n(C)c3n2)cnn1C`, the Ki was 3 nM in [1] and 2 nM in data set [6]. The IC50 in [3] stood at 75 nM; in [2] it was 43 nM; in data set [4], 310 nM; in [5], 260 nM.
For `Cn1c(NCc2ccccc2F)c(C#N)c2c(N)ncnc21`, the Ki in data set [1] came out at 120 nM; in data set [6] it was 145 nM. The IC50 in [3] is 6060 nM; in data set [2], 1740 nM.
Turning to `C[C@@H]1CCCN1c1c(C#N)c2c(N)nccc2n1C`, the results for the Activity in [7] and in data set [8] were 37% and 65%, respectively. Further, the Ki in [1] turned out to be 2 nM; in [6], 0.8 nM. Moreover, the IC50 was found to be 34 nM in [3] and 28 nM in data set [2].
Regarding `C[C@@H]1CCCN1c1c(C#N)c2c(N)ncnc2n1C`, the Activity in [7] amounted to 64%; in data set [8], 93%. Besides, the Ki was 0.7 nM in [1] and 0.4 nM in data set [6]. Also, the IC50 in data set [3] was 15 nM; in [2], 11 nM.
Consider `C[C@@H]1CCCN1c1c(C#N)c2c(N)nc(Nc3cn(C)nc3Cl)nc2n1C`, for which the IC50 in data set [3] came to 34 nM; in data set [2], 21 nM; in [4], 190 nM; in data set [5], 54 nM.
Consider `Cn1c(-c2ccccc2)c(C#N)c2c(N)ncnc21`, for which the figures for the Ki in data set [1] and in [6] were 33 nM and 30 nM, respectively. Moreover, the IC50 in data set [3] is 1260 nM; in [2], 483 nM.
Consider `C[C@@H]1CCCN1c1c(C#N)c2c(N)nc(N)nc2n1C`, for which the Ki in [1] amounted to 13 nM; in [6] it was 6 nM. The IC50 in data set [3] came to 248 nM; in data set [2], 217 nM.
Take `C[C@@H]1CCCN1c1c(C(N)=O)c2c(N)ncnc2n1C`: the Ki was 154 nM in data set [1] and 77 nM in data set [6]. Further, the IC50 in data set [3] worked out at 3190 nM; in data set [2], 2240 nM.
`Cc1nn(CC2(O)COC2)cc1Nc1nc(N)c2c(C#N)c(N3CCC[C@H]3C)n(C)c2n1`: the IC50 in data set [3] came out at 57 nM; in data set [2] it was 51 nM; in data set [4], 410 nM; in data set [5], 250 nM.
Consider `Cc1c(Nc2nc(N)c3c(C#N)c(N4CCC[C@H]4C)n(C)c3n2)cnn1CC1(O)COC1`, for which the IC50 in [3] came to 16 nM; in data set [2] it was 10 nM; in data set [4], 220 nM; in [5], 120 nM.
Consider `C[C@H]1CCCN1c1c(C#N)c2c(N)ncnc2n1C`, for which the Ki in [1] came to 212 nM; in [6], 136 nM. In addition, the IC50 was found to be 5660 nM in data set [3] and 3080 nM in [2].
On to `C[C@@H]1CCCN1c1c(C#N)c2c(N)nc(Nc3cnn(C)c3)nc2n1C`, for which the Activity in [7] was determined as 103%; in [8], 91%. In addition, the Ki in data set [1] came to 0.3 nM; in data set [6], 0.1 nM. Moreover, the IC50 worked out at 6 nM in data set [3] and 5 nM in [2].
In [1], `CN(C)c1ncnc2nc[nH]c12` [DIMETHYLADENINE] had an inhibition constant (Ki) of 1420 nM. Also, the IC50 in [2] stood at 3350 nM.
On to `Cc1cn(C)nc1Nc1cc2c(c(N)n1)c(C#N)c(N1CCC[C@H]1C)n2C`, for which the Activity in [7] was 8%; in [8], -7%. Besides, the Ki was found to be 75 nM in data set [1] and 63 nM in data set [6]. In addition, the results for the IC50 in data set [3] and in data set [2] were 2110 nM and 1290 nM, respectively.
In the case of `Cc1n[nH]cc1Nc1nc(N)c2c(C#N)c(N3CCC[C@H]3C)n(C)c2n1`, the Activity in [7] is 8%; in data set [8], -5%. The Ki was 2 nM in [1] and 1 nM in data set [6]. For the same compound, the IC50 in data set [3] was 42 nM; in data set [2], 27 nM.
With `Cc1nn(C2COC2)cc1Nc1nc(N)c2c(C#N)c(N3CCC[C@H]3C)n(C)c2n1`, the IC50 came out at 38 nM in data set [3], 25 nM in [2], 240 nM in data set [4] and 140 nM in data set [5].

The values above are taken from ChEMBL document CHEMBL5038598, “Design and Synthesis of Pyrrolo[2,3-d]pyrimidine-Derived Leucine-Rich Repeat Kinase 2 (LRRK2) Inhibitors Using a Checkpoint Kinase 1 (CHK1)-Derived Crystallographic Surrogate” (J Med Chem, 2021).
